Measured values from US9637520B2, “Template-fixed peptidomimetics with CXCR7 modulating activity” (POLYPHOR AG, priority 2010, dated 2017).
Starred links: 1 amine or outer side, 2 acyl side, 3 side chain; linkers in the order of their positions; H or OH if unused. Non-standard residues stand in square brackets, D forms with d. Residues, ends and D or L forms follow the SMILES beside them. *: point of attachment. Arg(Nω,Nω'-propylene) = N[C@@H](CCCNC1=NCCCN1)C(=O)O; dPro(cis-4-NH2) = N[C@H]1CN[C@@H](C(=O)O)C1; dPro(4S-NH2) = N[C@@H]1CN[C@@H](C(=O)O)C1; Pro(4S-NH2) = N[C@@H]1CN[C@H](C(=O)O)C1; 1Nal = N[C@@H](Cc1cccc2ccccc12)C(=O)O; Pro(3S-OH) = O=C(O)[C@H]1NCC[C@@H]1O; X2 = O=C([C@H](Cn1ncnn1)N[*:1])[*:2]; cisHyp = O=C(O)[C@@H]1C[C@H](O)CN1; hArg = N=C(N)NCCCC[C@H](N)C(=O)O; Tic = O=C(O)[C@@H]1Cc2ccccc2CN1; Cha = N[C@@H](CC1CCCCC1)C(=O)O; aThr = C[C@H](O)[C@H](N)C(=O)O; Agp = N=C(N)NC[C@H](N)C(=O)O; 2Pyrimidinyl = c1cnc(*)nc1; dOrn = NCCC[C@@H](N)C(=O)O; dPip = O=C(O)[C@H]1CCCCN1; Orn = NCCC[C@H](N)C(=O)O; Bn = c1ccc(C*)cc1

These compounds were tested against T1, CXCR7 (Homo sapiens, UniProt P25106) (assay: CXCR7 β-arrestin recruitment assay (PathHunter CHO-CXCR7, DiscoverX), agonistic assay). Conditions: agonistic assay; CHO CXCR7 β-arrestin cells; 90 min at 37° C.; chemiluminescence; read-out: β-Arrestin EC50.
T1 construct: host or cells: CHO (PathHunter CHO-CXCR7 β-arrestin cells)
T1 sequence (P25106 whole entry): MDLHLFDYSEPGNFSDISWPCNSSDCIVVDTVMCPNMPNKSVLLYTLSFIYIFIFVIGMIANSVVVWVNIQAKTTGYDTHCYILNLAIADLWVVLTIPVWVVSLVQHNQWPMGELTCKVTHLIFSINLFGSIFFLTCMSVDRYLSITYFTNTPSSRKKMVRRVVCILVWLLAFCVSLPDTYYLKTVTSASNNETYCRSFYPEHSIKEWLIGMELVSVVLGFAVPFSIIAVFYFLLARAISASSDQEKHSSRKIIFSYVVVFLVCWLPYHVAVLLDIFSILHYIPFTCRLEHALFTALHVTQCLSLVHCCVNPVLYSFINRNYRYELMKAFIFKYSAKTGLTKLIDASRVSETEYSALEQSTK
Assay type: cell-based
Description: Lyophilized peptides were weighed on a Microbalance (Mettler MX5) and dissolved in DMSO to a final concentration of 10 mM unless otherwise stated. Stock solutions were kept at +4° C., and protected from light.
2.2 CXCR7 β-Arrestin Recruitment Assay
The PathHunter CHO-CXCR7 (DiscoverX) assay was performed according to the manufacturer's protocol. In brief, CHO CXCR7 β-arrestin cells were seeded at a density of 5000 cells per well in 40 μl of F12 medium in black 96-half volume well culture plates and incubated overnight at 37° C. in a humidified atmosphere with 5% CO2. The next day, serial dilutions of PEM compounds have been prepared in DMSO and subsequently diluted in HBSS buffer containing 0.1% BSA.
For agonistic assay, 10 μl of compound solution or a solution of stromal cell-derived factor-1 (SDF-1) as positive control was added to the cells with a final DMSO concentration of 1% (v/v). The plate was incubated for 90 min at 37° C. in 5% CO2 incubator with gentle shaking (300 rpm) before addition of 40 μl of detection reagent per well. Reaction was developed for 90 min at room temperature in the dark with shaking, and chemiluminescence was measured with a Topcount (Perkin Elmer) luminescence counter.
`N=C(N)NCCC[C@@H]1NC(=O)[C@@H](CCCNC(=N)N)NC(=O)[C@H](Cc2cccc3ccccc23)NC(=O)[C@@H]2[C@@H](O)CCN2C(=O)[C@H]2CCCN2C(=O)[C@H](Cc2c[nH]c3ccccc23)NC1=O` [compound 52, cyclo(-1Nal-^DArg-Arg-Trp-^DPro-Pro((3S)OH)—)] (cyclo([1Nal][dR]RW[dP][Pro(3S-OH)])) gave an EC50 of 13.7 ± 5.1 nM.
`CC[C@H](C)[C@@H]1NC(=O)[C@H]([C@@H](C)O)NC(=O)[C@H]2CCCN2C(=O)[C@H](Cc2c[nH]c3ccccc23)NC(=O)[C@H](CCCN)NC(=O)[C@@H](CCCNC(=N)N)NC1=O` [compound 65, cyclo(-Ile-^DArg-Orn-Trp-^DPro-Thr-)] (cyclo(I[dR][Orn]W[dP]T)) showed an EC50 of 816 ± 58.8 nM.
Work on `CC[C@H](C)[C@@H]1NC(=O)[C@H]([C@H](C)O)NC(=O)[C@H]2CCCN2C(=O)[C@H](Cc2c[nH]c3ccccc23)NC(=O)[C@H](CCCNC(=N)N)NC(=O)[C@@H](CCCNC(=N)N)NC1=O` [compound 9, cyclo(-Ile-^DArg-Arg-Trp-^DPro-alloThr-)] (cyclo(I[dR]RW[dP][aThr])) yielded an EC50 of 292 ± 101 nM.
With `CC(C)[C@@H]1NC(=O)[C@H]([C@@H](C)O)NC(=O)[C@H]2CCCN2C(=O)[C@H](Cc2c[nH]c3ccccc23)NC(=O)[C@H](CCCNC(=N)N)NC(=O)[C@@H](CCCNC(=N)N)NC1=O` [compound 57, cyclo(-Val-^DArg-Arg-Trp-^DPro-Thr-)] (cyclo(RW[dP]TV[dR])) the EC50 was 271 ± 0.2 nM.
In the case of `C[C@@H](O)[C@@H]1NC(=O)[C@H]([C@@H](C)O)NC(=O)[C@H]2CCCN2C(=O)[C@H](CCCNC(=N)N)NC(=O)[C@H](Cc2c[nH]c3ccccc23)NC(=O)[C@@H](CCCNC(=N)N)NC1=O` [compound 19, cyclo(-Thr-^DArg-Trp-Arg-^DPro-Thr-)] (cyclo(R[dP]TT[dR]W)), the EC50 is reported as 17.2 ± 18.9 nM.
Work on `N=C(N)NCCC[C@@H]1NC(=O)[C@H](Cc2c[nH]c3ccccc23)NC(=O)[C@@H](Cc2ccccc2)NC(=O)[C@H](Cc2c[nH]c3ccccc23)NC(=O)[C@@H]2C[C@H](OCc3ccccc3)CN2C(=O)[C@H]2C[C@@H](N)CN2C1=O` [compound 50, cyclo(-Trp-^DPhe-Trp-Arg-^DPro((4R)NH2)-(4S)-Hyp(Bn)-)] (cyclo(R[dPro(cis-4-NH2)][cisHyp](Bn)W[dF]W)) yielded an EC50 of 6.6 ± 1.6 nM.
`CC[C@H](C)[C@@H]1NC(=O)[C@H]([C@@H](C)O)NC(=O)[C@H]2CCCN2C(=O)[C@H](Cc2c[nH]c3ccccc23)NC(=O)[C@H](CCCNC(=N)N)NC(=O)[C@@H](CCCNC(=N)N)NC1=O` [compound 18, cyclo(-Ile-^DArg-Arg-Trp-^DPro-Thr-)] (cyclo(I[dR]RW[dP]T)) was tested, and the EC50 was 6.7 ± 5.1 nM.
Compound `CC[C@H](C)[C@@H]1NC(=O)[C@H]([C@@H](C)O)NC(=O)[C@H]2CCCN2C(=O)[C@H](Cc2c[nH]c3ccccc23)NC(=O)[C@H](CCCNC2=NCCCN2)NC(=O)[C@@H](CCCNC(=N)N)NC1=O` [Ex. 71, cyclo(-Ile-^DArg-Orn(A56)-Trp-^DPro-Thr-)] (cyclo(I[dR][Arg(Nω,Nω'-propylene)]W[dP]T)) has an EC50 of 3.2 ± 2.7 nM.
For `CC[C@H](C)[C@@H]1NC(=O)[C@@H]2[C@@H](O)CCN2C(=O)[C@H]2CCCN2C(=O)[C@H](Cc2c[nH]c3ccccc23)NC(=O)[C@H](CCCNC(=N)N)NC(=O)[C@@H](CCCNC(=N)N)NC1=O` [Ex. 21, cyclo(-Ile-^DArg-Arg-Trp-^DPro-Pro((3S)OH)—)] (cyclo(I[dR]RW[dP][Pro(3S-OH)])), the EC50 was 123 ± 85.2 nM.
Work on `CC[C@H](C)[C@@H]1NC(=O)[C@H]([C@@H](C)O)NC(=O)[C@H]2CCCN2C(=O)[C@H](Cc2c[nH]c3ccccc23)NC(=O)[C@H](CCCNC(=N)N)NC(=O)[C@@H](CCCN)NC1=O` [compound 63, cyclo(-Ile-^DOrn-Arg-Trp-^DPro-Thr-)] (cyclo(I[dOrn]RW[dP]T)) yielded an EC50 of 23.3 ± 7.3 nM.
For `N=C(N)NCCC[C@@H]1NC(=O)[C@H](Cc2c[nH]c3ccccc23)NC(=O)[C@@H](Cc2ccccc2)NC(=O)[C@H](Cn2ncnn2)NC(=O)[C@@H]2Cc3ccccc3CN2C(=O)[C@H]2C[C@@H](N)CN2C1=O` [compound 75, cyclo(-Ala(Tet)-^DPhe-Trp-Arg-^DPro((4R)NH2)-Tic-)] (cyclo(R[dPro(cis-4-NH2)][Tic][X2][dF]W)), the EC50 was 28.1 ± 5.1 nM.
In the case of `CC[C@H](C)[C@@H]1NC(=O)[C@H]([C@@H](C)O)NC(=O)[C@H]2CCCN2C(=O)[C@H](Cc2c[nH]c3ccccc23)NC(=O)[C@H](CCCCNC(=N)N)NC(=O)[C@@H](CCCNC(=N)N)NC1=O` [compound 66, cyclo(-Ile-^DArg-hArg-Trp-^DPro-Thr-)] (cyclo(I[dR][hArg]W[dP]T)), the EC50 is reported as 11 ± 4.5 nM.
`C[C@@H](O)[C@@H]1NC(=O)[C@H]2CCCN2C(=O)[C@H](Cc2c[nH]c3ccccc23)NC(=O)[C@H](CCCNC(=N)N)NC(=O)[C@@H](CCCNC(=N)N)NC(=O)[C@H](CC2CCCCC2)NC1=O` [compound 62, cyclo(-Cha-^DArg-Arg-Trp-^DPro-Thr-)] (cyclo([Cha][dR]RW[dP]T)) gave an EC50 of 37.7 ± 18.5 nM.
Work on `N=C(N)NCCC[C@@H]1NC(=O)[C@H](Cc2c[nH]c3ccccc23)NC(=O)[C@@H](Cc2ccccc2)NC(=O)[C@H](Cc2c[nH]c3ccccc23)NC(=O)[C@@H]2C[C@H](N)CN2C(=O)[C@H]2CCCN2C1=O` [compound 44, cyclo(-Trp-^DPhe-Trp-Arg-^DPro-Pro((4S)NH2)—)] (cyclo(R[dP][Pro(4S-NH2)]W[dF]W)) yielded an EC50 of 36.9 ± 14 nM.
`O=C1N[C@H](Cc2ccccc2)C(=O)N[C@@H](Cc2c[nH]c3ccccc23)C(=O)N[C@@H](CCCNC2=NCCCN2)C(=O)N2CCCC[C@@H]2C(=O)N2CC[C@H](O)[C@H]2C(=O)N[C@H]1Cc1c[nH]c2ccccc12` [Ex. 73, cyclo(-Trp-^DPhe-Trp-Orn(A56)-^DPip-Pro((3S)OH)—)] (cyclo(W[dF]W[Arg(Nω,Nω'-propylene)][dPip][Pro(3S-OH)])) gave an EC50 of 14 ± 0.1 nM.
With `CC[C@H](C)[C@@H]1NC(=O)[C@H]([C@@H](C)O)NC(=O)[C@H]2CCCN2C(=O)[C@H](Cc2c[nH]c3ccccc23)NC(=O)[C@H](CCCNC(=N)N)NC(=O)[C@@H](CCCCN)NC1=O` [compound 11, cyclo(-Ile-^DLys-Arg-Trp-^DPro-Thr-)] (cyclo(I[dK]RW[dP]T)) the EC50 was 86.7 ± 9.7 nM.
With `N=C(N)NCCC[C@@H]1NC(=O)[C@H](Cc2c[nH]c3ccccc23)NC(=O)[C@@H](Cc2ccccc2)NC(=O)[C@H](CCCNc2ncccn2)NC(=O)[C@@H]2Cc3ccccc3CN2C(=O)[C@H]2C[C@@H](N)CN2C1=O` [Ex. 76, cyclo(-Orn(Ar2)-^DPhe-Trp-Arg-^DPro((4R)NH2)-Tic-)] (cyclo([Orn](2Pyrimidinyl)[dF]WR[dPro(cis-4-NH2)][Tic])) the EC50 was 209 ± 6.6 nM.
`CC[C@H](C)[C@@H]1NC(=O)[C@H]([C@@H](C)O)NC(=O)[C@H]2CCCN2C(=O)[C@H](Cc2c[nH]c3ccccc23)NC(=O)[C@H](CCCNc2ncccn2)NC(=O)[C@@H](CCCNC(=N)N)NC1=O` [Ex. 68, cyclo(-Ile-^DArg-Orn(Ar2)-Trp-^DPro-Thr-)] (cyclo(I[dR][Orn](2Pyrimidinyl)W[dP]T)) was tested, and the EC50 was 453 ± 186 nM.
In the case of `C[C@@H](O)[C@@H]1NC(=O)[C@H]2CCCN2C(=O)[C@H](Cc2c[nH]c3ccccc23)NC(=O)[C@H](CCCNC(=N)N)NC(=O)[C@@H](CCCNC(=N)N)NC(=O)[C@H](Cc2c[nH]c3ccccc23)NC1=O` [Ex. 20, cyclo(-Trp-^DArg-Arg-Trp-^DPro-Thr-)] (cyclo(RW[dP]TW[dR])), the EC50 is reported as 538 ± 105 nM.
For `N=C(N)NCCC[C@@H]1NC(=O)[C@H](Cc2c[nH]c3ccccc23)NC(=O)[C@@H](Cc2ccccc2)NC(=O)[C@H](Cc2c[nH]c3ccccc23)NC(=O)[C@@H]2Cc3ccccc3CN2C(=O)[C@H]2C[C@H](N)CN2C1=O` [Ex. 25, cyclo(-Trp-^DPhe-Trp-Arg-^DPro((4S)NH2)-Tic-)] (cyclo(R[dPro(4S-NH2)][Tic]W[dF]W)), the EC50 was 17.5 ± 12.2 nM.
Compound `N[C@@H]1C[C@@H]2C(=O)N3Cc4ccccc4C[C@H]3C(=O)N[C@@H](Cc3c[nH]c4ccccc34)C(=O)N[C@H](Cc3ccccc3)C(=O)N[C@@H](Cc3c[nH]c4ccccc34)C(=O)N[C@@H](CCCNC3=NCCCN3)C(=O)N2C1` [compound 80, cyclo(-Trp-^DPhe-Trp-Orn(A56)-^DPro((4R)NH2)-Tic-)] (cyclo([Tic]W[dF]W[Arg(Nω,Nω'-propylene)][dPro(cis-4-NH2)])) has an EC50 of 33.4 ± 0.8 nM.
`N=C(N)NCCCC[C@@H]1NC(=O)[C@@H]2Cc3ccccc3CN2C(=O)[C@H]2C[C@@H](N)CN2C(=O)[C@H](CCCNC(=N)N)NC(=O)[C@H](Cc2c[nH]c3ccccc23)NC(=O)[C@@H](Cc2ccccc2)NC1=O` [compound 35, cyclo(-hArg-^DPhe-Trp-Arg-^DPro((4R)NH2)-Tic-)] (cyclo(R[dPro(cis-4-NH2)][Tic][hArg][dF]W)) showed an EC50 of 12.2 ± 5.4 nM.
`CC[C@H](C)[C@@H]1NC(=O)[C@@H]2[C@@H](O)CCN2C(=O)[C@H]2CCCCN2C(=O)[C@H](Cc2c[nH]c3ccccc23)NC(=O)[C@H](CCCNC(=N)N)NC(=O)[C@@H](CCCNC(=N)N)NC1=O` [Ex. 54, cyclo(-Ile-^DArg-Arg-Trp-^DPip-Pro((3S)OH)—)] (cyclo(I[dR]RW[dPip][Pro(3S-OH)])) was tested, and the EC50 was 8.2 ± 3.4 nM.
`CC[C@H](C)[C@@H]1NC(=O)[C@H]([C@@H](C)O)NC(=O)[C@H]2CCCN2C(=O)[C@H](Cc2c[nH]c3ccccc23)NC(=O)[C@H](CNC(=N)N)NC(=O)[C@@H](CCCNC(=N)N)NC1=O` [Ex. 23, cyclo(-Ile-^DArg-Agp-Trp-^DPro-Thr-)] (cyclo([Agp]W[dP]TI[dR])) was tested, and the EC50 was 90.5 ± 60.7 nM.
